{
  "source": "patent US12419884B2",
  "about": "“Compositions and methods for treating iron overload” (BRIGHAM YOUNG UNIVERSITY, priority 2018, dated 2025)",
  "data": [
    {"test_system": "hepcidin secretion from HepG2 cells", "experiment": "hepcidin secretion from IL-6 and BMP-9 inflamed HepG2 cells, Mass Spectrometry", "type": "cell-based", "conditions": "IL-6 and BMP-9 (10 ng/mL each), inhibitors at 10 micromolar, FIG. 9", "description": "HepG2 cells were cultured with controls not treated with additional treatments. The remaining cells were all treated to induce inflammation IL-6 and BMP-9 (both cytokines were dosed at 10 ng/mL). Inhibitors were added at 10 micromolar to block furin and prevent the cleavage of prohepcidin to hepcidin. Hepcidin secreted into the growth media was measured by Mass Spectrometry.", "values": [
      {"smiles": "CC(C)c1nc(CN(C)C(=O)N[C@H](C(=O)N[C@@H](Cc2ccccc2)C[C@H](O)[C@H](Cc2ccccc2)NC(=O)OCc2cncs2)C(C)C)cs1", "note": "[Ritonavir]", "inhibition of hepcidin secretion": "small inhibitory effect"},
      {"smiles": "CC(C)(C)NC(=O)[C@@H]1CN(Cc2cccnc2)CCN1C[C@@H](O)C[C@@H](Cc1ccccc1)C(=O)N[C@H]1c2ccccc2C[C@H]1O", "note": "[indinavir, (2S)-1-[(2S,4R)-4-benzyl-2-hydroxy-4-{[(1S,2R)-2-hydroxy-2,3-dihydro-1Hinden-1-yl]carbamoyl}butyl]-N-tert-butyl-4-(pyridin-3-ylmethyl)piperazine-2-carboxamide]", "inhibition of hepcidin secretion": "more potent response"}
    ]},
    {"biological_target": "furin (Homo sapiens, UniProt P09958)", "sequence (P09958 108-794, species assumed)": "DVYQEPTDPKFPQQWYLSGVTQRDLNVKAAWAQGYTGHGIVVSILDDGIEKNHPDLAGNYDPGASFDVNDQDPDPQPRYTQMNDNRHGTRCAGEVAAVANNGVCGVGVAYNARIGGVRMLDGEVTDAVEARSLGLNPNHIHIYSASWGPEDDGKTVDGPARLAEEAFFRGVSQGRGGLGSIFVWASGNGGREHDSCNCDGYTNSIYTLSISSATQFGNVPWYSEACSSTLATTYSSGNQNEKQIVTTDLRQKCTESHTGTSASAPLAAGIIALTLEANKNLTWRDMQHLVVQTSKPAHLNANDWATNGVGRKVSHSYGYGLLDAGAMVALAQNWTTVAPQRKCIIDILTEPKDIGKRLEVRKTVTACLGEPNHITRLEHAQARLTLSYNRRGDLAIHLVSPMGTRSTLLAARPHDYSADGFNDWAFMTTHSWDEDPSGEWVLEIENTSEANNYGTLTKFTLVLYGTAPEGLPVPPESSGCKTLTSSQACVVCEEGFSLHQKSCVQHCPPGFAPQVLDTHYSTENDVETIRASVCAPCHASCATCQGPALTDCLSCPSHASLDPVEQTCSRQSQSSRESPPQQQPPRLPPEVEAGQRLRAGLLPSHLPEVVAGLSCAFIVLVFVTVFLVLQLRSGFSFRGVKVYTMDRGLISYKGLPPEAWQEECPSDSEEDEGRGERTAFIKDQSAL", "experiment": "furin fluorescence assay / enzyme assays with purified furin", "conditions": "in vitro fluorescence assay; 55, 110 and 220 micromolar doses; FIG. 7", "values": [
      {"smiles": "CC(C)CN(C[C@@H](O)[C@H](Cc1ccccc1)NC(=O)O[C@H]1CO[C@H]2OCC[C@H]21)S(=O)(=O)c1ccc(N)cc1", "note": "[Darunavir, [(1R,5S,6R)-2,8-dioxabicyclo[3.3.0]oct-6-yl] N-[(2S,3R)-4-[(4-aminophenyl)sulfonyl-(2-methylpropyl)amino]-3-hydroxy-1-phenyl-butan-2-yl]carbamate]", "furin inhibition": "most potent furin inhibition"},
      {"smiles": "Cc1c(O)cccc1C(=O)N[C@@H](CSc1ccccc1)[C@H](O)CN1C[C@H]2CCCC[C@H]2C[C@H]1C(=O)NC(C)(C)C", "note": "[Nelfinavir, (3S,4aS,8aS)—N-tert-butyl-2-[(2R,3R)-2-hydroxy-3-[(3-hydroxy-2-methylphenyl)formamido]-4-(phenylsulfanyl)butyl]-decahydroisoquinoline-3-carboxamide]", "furin inhibition": "most potent furin inhibition"},
      {"smiles": "CC(C)c1nc(CN(C)C(=O)N[C@H](C(=O)N[C@@H](Cc2ccccc2)C[C@H](O)[C@H](Cc2ccccc2)NC(=O)OCc2cncs2)C(C)C)cs1", "note": "[Ritonavir]", "furin inhibition": "most potent furin inhibition"},
      {"smiles": "CC(C)(C)NC(=O)[C@@H]1CC2CCCCC2CN1C[C@@H](O)[C@H](Cc1ccccc1)NC(=O)[C@H](CC(N)=O)NC(=O)c1ccc2ccccc2n1", "note": "(stereo partly drawn) [Saquinavir, (2S)—N-[(2S,3R)-4-[(3S)-3-(tert-butylcarbamoyl)-decahydroisoquinolin-2-yl]-3-hydroxy-1-phenylbutan-2-yl]-2-(quinolin-2-yl-formamido)butanediamide]", "furin inhibition": "very weak dose dependent inhibition of furin"}
    ]},
    {"test_system": "hepcidin secretion from HepG2 cells", "experiment": "hepcidin secretion from IL-6 inflamed HepG2 cells, ELISA", "type": "cell-based", "conditions": "IL-6 (10 ng/mL), inhibitors at 10 ng/mL, FIG. 8", "procedure": "HepG2 cells were cultured with controls not treated with additional treatments. The remaining cells were all treated to induce inflammation IL-6 (10 ng/mL). Inhibitors were added at 10 ng/mL to block furin and prevent the cleavage of prohepcidin to hepcidin. Hepcidin secreted into the growth media was measured by ELISA.", "values": [
      {"smiles": "COC(=O)N[C@H](C(=O)N[C@@H](Cc1ccccc1)[C@@H](O)CN(Cc1ccc(-c2ccccn2)cc1)NC(=O)[C@@H](NC(=O)OC)C(C)(C)C)C(C)(C)C", "note": "[Atazanvir, methyl N-[(1S)-1-{[(2S,3S)-3-hydroxy-4-[(2S)-2-[(methoxycarbonyl)amino]-3,3-dimethyl-N′-{[4-(pyridin-2-yl)phenyl]methyl}butanehydrazido]-1-phenylbutan-2-yl]carbamoyl}-2,2-dimethylpropyl]carbamate]", "inhibition of hepcidin secretion": "showed inhibition of hepcidin secretion"},
      {"smiles": "Cc1cccc(C)c1OCC(=O)N[C@@H](Cc1ccccc1)[C@@H](O)C[C@H](Cc1ccccc1)NC(=O)[C@H](C(C)C)N1CCCNC1=O", "note": "[Lopinavir, (2S)—N-[(2S,4S,5S)-5-[2-(2,6-dimethylphenoxy)acetamido]-4-hydroxy-1,6-diphenylhexan-2-yl]-3-methyl-2-(2-oxo-1,3-diazinan-1-yl)butanamide]", "inhibition of hepcidin secretion": "showed inhibition of hepcidin secretion"},
      {"smiles": "CC(C)CN(C[C@@H](OP(=O)(O)O)[C@H](Cc1ccccc1)NC(=O)O[C@H]1CCOC1)S(=O)(=O)c1ccc(N)cc1", "note": "[fosamprenavir]", "inhibition of hepcidin secretion": "showed inhibition of hepcidin secretion"}
    ]}
  ]
}
